Like-named read-outs stand apart in the source and are kept apart here.
How the values were obtained:
ABL1(F317I) = ABL1(F317I) (Homo sapiens, UniProt P00519, F317I); details: 0.1 µM, binder
AURKC = AURKC (Homo sapiens, UniProt Q9UQB9); details: 0.1 µM; binder
BIKE = BIKE (Homo sapiens, UniProt Q9NSY1); details: 0.1 µM; binder
CAMK1D = CAMK1D (Homo sapiens, UniProt Q8IU85); details: 0.1 µM; binder
CAMK2A = CAMK2A (Homo sapiens, UniProt Q9UQM7); details: 0.1 µM; binder
CAMK2D = CAMK2D (Homo sapiens, UniProt Q13557); details: 0.1 µM; binder
Sequence of CAMK2D (Q13557 whole entry): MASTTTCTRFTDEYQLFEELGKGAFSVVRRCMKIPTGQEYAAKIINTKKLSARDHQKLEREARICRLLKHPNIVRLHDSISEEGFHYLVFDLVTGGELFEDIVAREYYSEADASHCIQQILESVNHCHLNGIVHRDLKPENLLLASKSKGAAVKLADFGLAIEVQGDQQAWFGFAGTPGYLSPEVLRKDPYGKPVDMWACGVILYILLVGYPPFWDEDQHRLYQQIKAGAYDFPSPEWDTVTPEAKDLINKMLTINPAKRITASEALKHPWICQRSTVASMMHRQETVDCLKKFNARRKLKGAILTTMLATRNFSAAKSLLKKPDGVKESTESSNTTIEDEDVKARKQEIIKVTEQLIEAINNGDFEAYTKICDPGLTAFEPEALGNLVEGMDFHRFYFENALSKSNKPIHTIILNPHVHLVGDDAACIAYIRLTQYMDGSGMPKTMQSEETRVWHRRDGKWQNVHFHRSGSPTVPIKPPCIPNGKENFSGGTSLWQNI

EGFR(G719C) = EGFR(G719C) (Homo sapiens, UniProt P00533, G719C); details: 0.1 µM; binder
FGR = FGR (Homo sapiens, UniProt P09769); details: 0.1 µM; binder
GRK3 = GRK3 (Homo sapiens, UniProt P35626); details: 0.1 µM; binder
Sequence of GRK3 (P35626 whole entry): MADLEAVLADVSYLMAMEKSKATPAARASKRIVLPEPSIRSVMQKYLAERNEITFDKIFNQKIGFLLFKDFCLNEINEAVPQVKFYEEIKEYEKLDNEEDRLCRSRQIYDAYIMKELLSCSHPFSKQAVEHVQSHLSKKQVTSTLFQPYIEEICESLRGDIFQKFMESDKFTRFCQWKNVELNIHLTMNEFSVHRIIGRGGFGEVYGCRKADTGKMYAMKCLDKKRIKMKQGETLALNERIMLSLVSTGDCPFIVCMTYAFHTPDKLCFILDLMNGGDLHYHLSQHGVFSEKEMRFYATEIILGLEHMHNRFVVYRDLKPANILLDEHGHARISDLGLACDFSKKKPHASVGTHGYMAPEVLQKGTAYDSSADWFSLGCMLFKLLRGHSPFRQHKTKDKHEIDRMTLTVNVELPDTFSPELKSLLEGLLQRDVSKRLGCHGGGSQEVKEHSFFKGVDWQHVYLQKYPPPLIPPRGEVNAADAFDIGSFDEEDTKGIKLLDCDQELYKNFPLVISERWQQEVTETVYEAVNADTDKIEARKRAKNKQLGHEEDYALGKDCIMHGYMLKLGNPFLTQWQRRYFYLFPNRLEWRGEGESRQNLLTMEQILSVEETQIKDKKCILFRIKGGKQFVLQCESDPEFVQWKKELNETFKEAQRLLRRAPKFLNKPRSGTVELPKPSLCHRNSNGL

HIPK1 = HIPK1 (Homo sapiens, UniProt Q86Z02); details: 0.1 µM; binder
HIPK3 = HIPK3 (Homo sapiens, UniProt Q9H422); details: 0.1 µM; binder
HIPK4 = HIPK4 (Homo sapiens, UniProt Q8NE63); details: 0.1 µM; binder
JNK2 = JNK2 (Homo sapiens, UniProt P45984); details: 0.1 µM; binder
LIMK1 = LIMK1 (Homo sapiens, UniProt P53667); details: 0.1 µM; binder
MEK2 = MEK2 (Homo sapiens, UniProt P36507); details: 0.1 µM; binder
MET = MET (Homo sapiens, UniProt P08581); details: 0.1 µM; binder
MST1R = MST1R (Homo sapiens, UniProt Q04912); details: 0.1 µM; binder
PAK7 = PAK7 (Homo sapiens, UniProt Q9P286); details: 0.1 µM; binder
PIP4K2C = PIP4K2C (Homo sapiens, UniProt Q8TBX8); details: 0.1 µM; binder
PRKCQ = PRKCQ (Homo sapiens, UniProt Q04759); details: 0.1 µM; binder
PRKR = PRKR (Homo sapiens, UniProt P19525); details: 0.1 µM; binder
ROCK1 = ROCK1 (Homo sapiens, UniProt Q13464); details: 0.1 µM; binder
ROS1 = ROS1 (Homo sapiens, UniProt P08922); details: 0.1 µM; binder
Sequence of ROS1 (P08922 whole entry): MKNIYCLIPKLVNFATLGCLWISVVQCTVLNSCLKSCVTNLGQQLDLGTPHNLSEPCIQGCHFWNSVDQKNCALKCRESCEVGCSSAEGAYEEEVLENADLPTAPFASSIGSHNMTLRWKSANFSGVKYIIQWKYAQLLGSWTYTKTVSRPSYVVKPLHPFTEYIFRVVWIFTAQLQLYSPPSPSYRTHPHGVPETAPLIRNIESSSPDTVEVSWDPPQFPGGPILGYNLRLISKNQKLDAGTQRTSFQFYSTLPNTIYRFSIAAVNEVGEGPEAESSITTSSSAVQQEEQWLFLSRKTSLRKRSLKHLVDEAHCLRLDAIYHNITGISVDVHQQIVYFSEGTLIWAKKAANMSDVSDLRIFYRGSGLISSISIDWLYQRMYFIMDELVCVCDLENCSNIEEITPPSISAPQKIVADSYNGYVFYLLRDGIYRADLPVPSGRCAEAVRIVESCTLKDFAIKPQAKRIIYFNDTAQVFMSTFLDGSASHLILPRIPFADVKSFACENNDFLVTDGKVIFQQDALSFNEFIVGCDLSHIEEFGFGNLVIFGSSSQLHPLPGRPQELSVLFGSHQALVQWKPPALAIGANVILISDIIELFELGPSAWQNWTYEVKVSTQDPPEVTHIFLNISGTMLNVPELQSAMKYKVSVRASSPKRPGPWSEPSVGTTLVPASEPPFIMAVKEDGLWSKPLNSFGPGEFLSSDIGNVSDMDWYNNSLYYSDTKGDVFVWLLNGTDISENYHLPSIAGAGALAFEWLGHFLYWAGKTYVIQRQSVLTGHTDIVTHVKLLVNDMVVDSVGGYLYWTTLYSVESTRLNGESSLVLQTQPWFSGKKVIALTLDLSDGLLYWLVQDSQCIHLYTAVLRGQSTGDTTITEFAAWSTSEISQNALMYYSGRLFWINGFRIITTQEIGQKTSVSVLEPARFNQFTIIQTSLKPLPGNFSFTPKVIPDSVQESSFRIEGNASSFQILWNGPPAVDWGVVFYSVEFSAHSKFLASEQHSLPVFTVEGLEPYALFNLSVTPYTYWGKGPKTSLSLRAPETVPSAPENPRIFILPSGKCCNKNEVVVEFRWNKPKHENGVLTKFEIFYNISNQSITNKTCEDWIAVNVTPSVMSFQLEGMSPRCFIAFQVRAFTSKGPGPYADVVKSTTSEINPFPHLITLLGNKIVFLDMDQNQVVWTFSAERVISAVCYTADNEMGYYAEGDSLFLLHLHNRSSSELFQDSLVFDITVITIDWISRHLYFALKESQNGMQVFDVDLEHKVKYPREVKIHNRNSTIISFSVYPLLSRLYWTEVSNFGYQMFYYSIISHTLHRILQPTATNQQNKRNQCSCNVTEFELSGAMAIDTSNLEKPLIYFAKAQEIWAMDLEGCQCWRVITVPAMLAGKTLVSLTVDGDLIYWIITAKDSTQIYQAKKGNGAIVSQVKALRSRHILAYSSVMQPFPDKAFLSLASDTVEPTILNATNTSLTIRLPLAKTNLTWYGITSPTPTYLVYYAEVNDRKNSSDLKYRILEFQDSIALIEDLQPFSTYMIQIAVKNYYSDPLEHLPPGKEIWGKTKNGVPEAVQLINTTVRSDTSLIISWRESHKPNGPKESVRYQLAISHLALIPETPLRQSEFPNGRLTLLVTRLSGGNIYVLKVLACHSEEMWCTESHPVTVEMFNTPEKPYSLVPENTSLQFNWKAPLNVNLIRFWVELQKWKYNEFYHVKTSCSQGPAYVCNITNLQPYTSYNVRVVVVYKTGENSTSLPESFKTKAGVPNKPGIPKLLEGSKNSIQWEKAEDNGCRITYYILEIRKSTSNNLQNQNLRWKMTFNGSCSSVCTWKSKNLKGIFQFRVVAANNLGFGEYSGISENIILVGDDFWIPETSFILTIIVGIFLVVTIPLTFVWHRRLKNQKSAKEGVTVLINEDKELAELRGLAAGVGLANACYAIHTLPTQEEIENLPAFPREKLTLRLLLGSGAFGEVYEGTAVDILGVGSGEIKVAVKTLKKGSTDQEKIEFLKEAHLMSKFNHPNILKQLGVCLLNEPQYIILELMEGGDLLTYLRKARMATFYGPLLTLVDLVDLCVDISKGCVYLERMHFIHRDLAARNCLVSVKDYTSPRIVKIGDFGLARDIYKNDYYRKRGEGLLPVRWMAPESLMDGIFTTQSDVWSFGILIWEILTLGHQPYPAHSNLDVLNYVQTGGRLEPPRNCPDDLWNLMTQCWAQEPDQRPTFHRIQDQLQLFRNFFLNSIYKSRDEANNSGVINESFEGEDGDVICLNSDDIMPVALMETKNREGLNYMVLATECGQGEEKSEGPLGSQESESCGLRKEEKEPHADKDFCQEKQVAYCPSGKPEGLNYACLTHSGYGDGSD

S6K1 = S6K1 (Homo sapiens, UniProt P23443); details: 0.1 µM; binder
SIK1 = SIK1 (Homo sapiens, UniProt P57059); details: 0.1 µM; binder
STK36 = STK36 (Homo sapiens, UniProt Q9NRP7); details: 0.1 µM; binder
TBK1 = TBK1 (Homo sapiens, UniProt Q9UHD2); details: 0.1 µM; binder
TRKB = TRKB (Homo sapiens, UniProt Q16620); details: 0.1 µM; binder
TSSK1B = TSSK1B (Homo sapiens, UniProt Q9BXA7); details: 0.1 µM; binder
TSSK3 = TSSK3 (Homo sapiens, UniProt Q96PN8); details: 0.1 µM; binder
WNK2 = WNK2 (Homo sapiens, UniProt Q9Y3S1); details: 0.1 µM; binder

Sequence of ABL1(F317I) (P00519 whole entry F317I): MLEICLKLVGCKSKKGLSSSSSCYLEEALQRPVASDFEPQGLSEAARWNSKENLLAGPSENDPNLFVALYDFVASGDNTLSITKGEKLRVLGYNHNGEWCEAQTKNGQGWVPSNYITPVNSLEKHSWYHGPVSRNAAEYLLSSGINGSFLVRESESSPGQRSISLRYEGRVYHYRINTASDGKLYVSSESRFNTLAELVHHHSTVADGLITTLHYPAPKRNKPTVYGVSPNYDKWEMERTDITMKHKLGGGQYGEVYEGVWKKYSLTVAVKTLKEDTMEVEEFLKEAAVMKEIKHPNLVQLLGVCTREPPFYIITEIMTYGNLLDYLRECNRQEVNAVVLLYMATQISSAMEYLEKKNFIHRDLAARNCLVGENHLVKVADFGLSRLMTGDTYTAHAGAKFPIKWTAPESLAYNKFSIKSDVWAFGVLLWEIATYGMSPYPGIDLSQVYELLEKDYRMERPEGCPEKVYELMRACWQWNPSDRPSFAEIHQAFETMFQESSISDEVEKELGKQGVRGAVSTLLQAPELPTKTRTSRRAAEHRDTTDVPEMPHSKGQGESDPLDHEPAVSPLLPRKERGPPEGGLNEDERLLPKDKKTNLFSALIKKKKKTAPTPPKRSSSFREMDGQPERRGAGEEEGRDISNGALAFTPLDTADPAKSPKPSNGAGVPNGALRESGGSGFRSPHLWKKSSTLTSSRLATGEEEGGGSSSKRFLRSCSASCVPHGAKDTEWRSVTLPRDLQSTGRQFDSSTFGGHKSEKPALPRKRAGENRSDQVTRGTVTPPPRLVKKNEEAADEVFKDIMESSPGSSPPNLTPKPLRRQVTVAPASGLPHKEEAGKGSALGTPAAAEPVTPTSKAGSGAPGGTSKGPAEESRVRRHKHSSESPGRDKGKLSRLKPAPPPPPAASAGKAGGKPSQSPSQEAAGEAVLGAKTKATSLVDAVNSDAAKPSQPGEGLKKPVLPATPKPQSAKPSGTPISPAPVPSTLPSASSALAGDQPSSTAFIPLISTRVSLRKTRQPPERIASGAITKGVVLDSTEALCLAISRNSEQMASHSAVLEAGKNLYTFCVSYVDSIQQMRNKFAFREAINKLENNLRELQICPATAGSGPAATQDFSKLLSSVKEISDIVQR
Sequence of AURKC (Q9UQB9 whole entry): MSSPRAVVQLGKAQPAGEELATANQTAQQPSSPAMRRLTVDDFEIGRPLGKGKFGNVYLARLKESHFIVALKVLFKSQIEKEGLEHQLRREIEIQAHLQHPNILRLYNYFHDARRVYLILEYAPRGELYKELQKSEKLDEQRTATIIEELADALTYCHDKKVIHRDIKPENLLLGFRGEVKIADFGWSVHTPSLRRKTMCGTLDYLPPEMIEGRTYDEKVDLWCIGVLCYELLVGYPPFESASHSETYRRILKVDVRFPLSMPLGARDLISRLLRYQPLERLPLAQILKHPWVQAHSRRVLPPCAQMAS

For `CNc1ncc2cc(-c3ccc(-c4cccc(C)n4)cc3Cl)c(=O)n(C[C@H]3OC[C@H](N)CO3)c2n1` [compound 6, G-5555], the “Percent Control” value (ABL1(F317I); nonphosphorylated) was 100%, the “Percent Control” value (ABL1(F317I); phosphorylated) was 87% and the “Percent Control” value (AURKC) was 37%. The “Percent Control” value (BIKE) was 100%, the “Percent Control” value (CAMK1D) was 43% and the “Percent Control” value (CAMK2A) was 79%. The “Percent Control” value (CAMK2D) was 100%, the “Percent Control” value (EGFR(G719C)) was 100% and the “Percent Control” value (FGR) was 100%. The “Percent Control” value (GRK3) was 83%, the “Percent Control” value (HIPK1) was 100% and the “Percent Control” value (HIPK3) was 86%. For the same compound, the “Percent Control” value (HIPK4) was 95%, the “Percent Control” value (JNK2) was 100% and the “Percent Control” value (LIMK1) was 93%. The “Percent Control” value (MEK2) was 33%, the “Percent Control” value (MET) was 89% and the “Percent Control” value (MST1R) was 73%. For the same compound, the “Percent Control” value (PAK7) was 100%, the “Percent Control” value (PIP4K2C) was 79% and the “Percent Control” value (PRKCQ) was 81%. For the same compound, the “Percent Control” value (PRKR) was 100%, the “Percent Control” value (ROCK1) was 83% and the “Percent Control” value (ROS1) was 100%. The “Percent Control” value (S6K1) was 92%, the “Percent Control” value (SIK1) was 1.4% and the “Percent Control” value (STK36) was 36%. For the same compound, the “Percent Control” value (TBK1) was 100%, the “Percent Control” value (TRKB) was 100% and the “Percent Control” value (TSSK1B) was 98%. The “Percent Control” value (TSSK3) was 100% and the “Percent Control” value (WNK2) was 100%.

Reference: article doi:10.1101/2021.04.08.439011v1 (biorxiv, 2021)
